Reference: patent publication US9815831B2, “3,5-disubstituted-3H-imidazo[4,5-B]pyridine and 3,5-disubstituted-3H-[1,2,3]triazolo[4,5-B] pyridine compounds as modulators of c-Met protein kinases” (Rhizen Pharmaceuticals SA, priority 2012, dated 2017)
Like-named read-outs stand apart in the source and are kept apart here.

Key:
[1] = target: T1, human recombinant Met kinase (Homo sapiens, UniProt P08581); assay: Colorimetric determination of c-Met kinase activity (HTScan Met Kinase Assay Kit); type: biochemical; conditions: read-out: c-Met Enzyme IC50
T1 construct: purchased Cell Signalling Technology, Beverly, Mass
T1 sequence (P08581 25-1390): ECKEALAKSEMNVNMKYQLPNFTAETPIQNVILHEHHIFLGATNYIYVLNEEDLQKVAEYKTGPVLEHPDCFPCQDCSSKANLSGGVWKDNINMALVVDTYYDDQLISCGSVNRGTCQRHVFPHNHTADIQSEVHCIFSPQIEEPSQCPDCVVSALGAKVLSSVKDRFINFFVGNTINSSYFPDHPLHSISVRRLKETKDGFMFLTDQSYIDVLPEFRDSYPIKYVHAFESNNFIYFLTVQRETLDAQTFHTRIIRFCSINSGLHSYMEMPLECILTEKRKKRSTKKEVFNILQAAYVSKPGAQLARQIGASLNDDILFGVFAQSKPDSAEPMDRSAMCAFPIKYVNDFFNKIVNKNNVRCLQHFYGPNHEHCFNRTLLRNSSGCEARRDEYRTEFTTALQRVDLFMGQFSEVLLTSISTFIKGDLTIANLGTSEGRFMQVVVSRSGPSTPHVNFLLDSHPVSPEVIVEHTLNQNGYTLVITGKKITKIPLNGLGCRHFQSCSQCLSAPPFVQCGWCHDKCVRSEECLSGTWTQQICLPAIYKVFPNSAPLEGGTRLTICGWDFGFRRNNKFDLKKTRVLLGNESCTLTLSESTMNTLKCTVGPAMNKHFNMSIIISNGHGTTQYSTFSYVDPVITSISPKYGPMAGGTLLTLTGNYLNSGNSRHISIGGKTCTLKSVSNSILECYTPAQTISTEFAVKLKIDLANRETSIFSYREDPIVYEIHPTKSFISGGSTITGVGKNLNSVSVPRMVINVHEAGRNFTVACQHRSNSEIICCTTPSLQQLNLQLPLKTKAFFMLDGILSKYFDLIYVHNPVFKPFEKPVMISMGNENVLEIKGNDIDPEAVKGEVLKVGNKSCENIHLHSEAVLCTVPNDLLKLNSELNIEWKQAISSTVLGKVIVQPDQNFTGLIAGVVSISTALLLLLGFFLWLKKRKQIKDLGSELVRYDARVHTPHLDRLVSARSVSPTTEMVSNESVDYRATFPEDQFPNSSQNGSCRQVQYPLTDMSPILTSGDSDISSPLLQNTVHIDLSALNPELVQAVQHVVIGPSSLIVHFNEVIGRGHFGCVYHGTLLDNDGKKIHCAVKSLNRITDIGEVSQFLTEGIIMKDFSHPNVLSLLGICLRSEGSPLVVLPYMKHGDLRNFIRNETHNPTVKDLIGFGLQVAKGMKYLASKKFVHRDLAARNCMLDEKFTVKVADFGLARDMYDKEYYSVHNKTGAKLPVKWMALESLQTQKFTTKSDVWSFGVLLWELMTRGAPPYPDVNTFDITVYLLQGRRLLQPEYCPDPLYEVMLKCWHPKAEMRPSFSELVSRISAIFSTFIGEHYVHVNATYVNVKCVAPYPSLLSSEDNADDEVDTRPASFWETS

[2] = target: T1, human recombinant Met kinase; assay: as above; type: biochemical; conditions: 100 nM (cells without *), read-out: c-Met Enzyme % inhibition @ 100 nM
Method in brief: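 Human recombinant Met kinase was preincubated with compound for 5 min at room temperature, then reacted with ATP and biotinylated peptide for 30 min; EDTA stop. Phosphopeptide captured on streptavidin and detected with phospho-tyrosine mAb and europium anti-mouse IgG by time-resolved fluorescence (340/615 nm). Reported as % inhibition or IC50.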

MKN-45 = assay: Inhibition of MKN-45 proliferation (MTT); type: cell-based, human; conditions: Homo sapiens, MKN-45 proliferation; for inhibition at 0.1 µM: 100 nM, read-out: MKN45 % inhibition @ 100 nM; for GI50: read-out: MKN45 GI50
Method in brief: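 High-Met human gastric adenocarcinoma MKN-45 cells plated on day 1 and exposed to compound from day 2. Viability measured by MTT dye reduction on day 5; output given as % inhibition at 100 nM and GI50.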

c-Met kinase [3] = target: T2, c-Met kinase (Homo sapiens, UniProt P08581); assay: Inhibition of c-Met kinase phosphorylation in MKN-45 cells (cell based ELISA); parameters: endogenous in cells; host or cells: MKN-45; conditions: Table 4D, 1 h incubation
T2 sequence (P08581 25-1390): as above
Method: MKN45 cells are a prototype of “c-Met addicted” cells having constitutively activated c-Met kinase similar to that observed in sub-sects of gastric or hepatocellular cancer patients with dysregulated c-Met kinase activity. Inhibition of Met phosphorylation was determined using a cell based ELISA assay according to the following schedule: • Day 1: MKN-45 cells were plated in 96-well plates in complete growth medium. • Day 2: Inhibitors at the desired concentration were added to the plates and incubated for 1 h and lysed subsequently. Lysates were transferred to NUNC Maxisorp plates coated with anti-cMet receptor antibody. Phopho-tyrosine mAb and HRP-lined anti-mouse IgG were used as primary and secondary antibodies respectively. Optical density was measured on a microplate reader (BMG Labtech., Germany) at […]. Inhibition of c-Met phosphorylation in this cell line indicates a therapeutic potential for test compounds in patients diagnosed with cancers caused by aberrant c-Met kinase signalling. Results: The results are provided above in Table 4D as IC50 values.

Akt [4] = assay: Inhibition of Akt phosphorylation in MKN-45 cells (Western blot); type: cell-based; conditions: Homo sapiens, Table 6, 0-1000 nM
Method: (§1) 6. Inhibition of Akt Phosphorylation in MKN-45 or NCI-H441 Cells:
(§2) Akt is a serine-threonine kinase and a downstream marker regulated by c-Met kinase via the PI3K pathway. Once phosphorylated, Akt regulates several end processes including cell survival and growth. Cells were treated with 0-1000 nM of test compounds, lysed, and the proteins separated on a 10% SDS-PAGE. Following separation, proteins were transferred onto a nitrocellulose membrane and detected by chemiluminescence after incubation with […] (primary) and rabbit anti-mouse Ab (secondary). Intensity of the bands was determined using ImageJ 1.42q (NIH, USA) and normalized to Actin (loading control).
(§3) Results: The results are provided below as IC50 values in Table 6.

c-Met kinase [5] = target: T2, c-Met kinase; assay: Inhibition of c-Met kinase phosphorylation in NCI-H441 cells (cell based ELISA); conditions: Table 5, 1 h incubation
Method: 5. Inhibition of c-Met Kinase Phosphorylation in NCI-H441 Cells:
Inhibition of Met phosphorylation was determined using a cell based ELISA assay according to the following schedule: • Day 1: NCI-H441 cells were plated in 96-well plates in complete growth medium. • Day 2: Inhibitors at the desired concentration were added to the plates, incubated for 1 h and lysed subsequently. Lysates were transferred to NUNC Maxisorp plates coated with anti-cMet receptor antibody. Phopho-tyrosine mAb and HRP-lined anti-mouse IgG were used as primary and secondary antibodies respectively. Optical density was measured on a microplate reader (BMG Labtech., Germany) at […]. […] Results: The results are given below in Table 5 as IC50 values.

MDA-MB-231 cells = assay: Inhibition of HGF-induced cell proliferation in MDA-MB-231 cells (MTT); type: cell-based; conditions: Homo sapiens, Table 8, HGF (50 ng/ml)
Method: 8. Inhibition of HGF-Induced Met Phosphorylation in MDA-MB-231 Cells:
MDA-MB-231 is a breast cancer cell line having a high level of c-Met expression. Activation of Met kinase in these cells occurs only after the addition of its natural ligand, Hepatocyte Growth Factor (HGF). Upon binding to the extracellular domain of the enzyme, it triggers phosphorylation of tyrosine residues and regulates several downstream events such as cell proliferation. Cell proliferation assays were carried out using the high Met expressing cell line (MDA-MB-231) according to the following schedule: • Day 1: Cells were plated in 96-well plates in complete growth medium. • Day 2: Media was replaced with starvation medium containing 0.04% BSA. • Day 3: Inhibitors at the desired concentrations and HGF (50 ng/ml) were added. • Day 5: Cell viability was determined using the 3-[4,5-dimethylthiazol-2-yl]-2,5-diphenyltetrazolium bromide (MTT) dye reduction test. […] Results: The results are provided below in Table 8 as IC50 values.

MKN-45 cells = assay: Induction of apoptosis in MKN-45 cells (caspase-3 activity); type: cell-based, human; conditions: percentage induction @ 3 μM; caspase-3, MKN-45 cells, 24 h; percent of maximum response
Method: 7. Induction of Apoptosis in MKN-45 Cells: I
Induction of Caspase 3 was measured fluorimetrically. Cells were incubated with desired concentrations of the compound for 24 h. After incubation, cells were harvested and counted. An equal number of viable cells per well (0.3×10^6 cells) were used for determination of caspase-3 activity. Increase in apoptosis manifested by an elevation in caspase-3 levels was determined using a Caspase-3 kit from Millipore. Data are expressed as a percent of the maximum response (100%).
Results: The results are provided below as percentage induction @ 3 μM in Table 7.

Akt [6] = assay: Inhibition of Akt phosphorylation in NCI-H441 cells (Western blot); type: cell-based; conditions: Homo sapiens, Table 6, 0-1000 nM
Method: as §1, §2, §3

| Structure (SMILES) | IC50 ([1]; Table 4A) [nM] | inhibition at 0.1 µM ([2]; Table 4A) [%] | GI50 (MKN-45; MKN-45, Table 4A) [nM] | IC50 (c-Met kinase [3]) [nM] | IC50 (Akt [4]) [nM] | IC50 ([1]; Table 4C) [nM] | IC50 (c-Met kinase [5]) [nM] | GI50 (MKN-45; MKN-45, Table 4C) [nM] | IC50 (MDA-MB-231 cells) [nM] | IC50 (Akt [6]) [nM] | melting point [°C] | inhibition at 0.1 µM ([2]; Table 4C) [%] | inhibition at 0.1 µM (MKN-45; MKN-45, Table 4A) [%] | inhibition at 0.1 µM (MKN-45; MKN-45, Table 4C) [%] | % induction of caspase-3 activity (MKN-45 cells) |
| --- | --- | --- | --- | --- | --- | --- | --- | --- | --- | --- | --- | --- | --- | --- | --- |
| O=C(NOCCO)c1ccc(-c2ccc3nnn(Cc4ccc5ncsc5c4)c3n2)cc1Cl [Example 18, 4-(3-(benzo[d]thiazol-6-ylmethyl)-3H-[1,2,3]triazolo[4,5-b]pyridin-5-yl)-2-chloro-N-(2-hydroxyethoxy)benzamide] | 25 to 50 | 50 to 75 | 50 to 100 | – | – | – | – | – | – | – | 194 to 196 | – | 25 to 50 | – | – |
| O=C(NOCCO)c1c(F)cc(-c2ccc3nnn(Cc4cc5cccnc5cc4F)c3n2)cc1F [Example 9, 2,6-difluoro-4-(3-((7-fluoroquinolin-6-yl)methyl)-3H-[1,2,3]triazolo[4,5-b]pyridin-5-yl)-N-(2-hydroxyethoxy)benzamide] | 25 to 50 | 75 to 100 | 50 to 100 | 25 to 50 | 50 to 250 | – | 10 to 25 | – | – | 10 to 25 | – | – | 75 to 100 | – | A (A is ≧75) |
| O=C(NOCCO)c1c(F)cc(-c2ccc3nnn(Cc4ccc5ncsc5c4)c3n2)cc1F [Example 19, 4-(3-(benzo[d]thiazol-6-ylmethyl)-3H-[1,2,3]triazolo[4,5-b]pyridin-5-yl)-2,6-difluoro-N-(2-hydroxyethoxy)benzamide] | 25 to 50 | 75 to 100 | 50 to 100 | – | – | – | – | – | – | – | 202 to 205 | – | 25 to 50 | – | – |
| O=C(NOCCO)c1c(F)cc(-c2ccc3nnn(Cc4ccc5ncccc5c4)c3n2)cc1F [Example 8, 2,6-difluoro-N-(2-hydroxyethoxy)-4-(3-(quinolin-6-ylmethyl)-3H-[1,2,3]triazolo[4,5-b]pyridin-5-yl)benzamide] | 25 to 50 | 75 to 100 | 50 to 100 | 50 to 500 | 50 to 250 | – | 25 to 50 | – | – | ≤ 10 | – | – | 25 to 50 | – | C (C is <50 and ≧25) |
| O=C(NOCCO)c1ccc(-c2ccc3nnn(Cc4ccc5ncsc5c4)c3n2)cc1F [Example 20, 4-(3-(benzo[d]thiazol-6-ylmethyl)-3H-[1,2,3]triazolo[4,5-b]pyridin-5-yl)-2-fluoro-N-(2-hydroxyethoxy)benzamide] | 25 to 50 | 75 to 100 | 50 to 100 | – | – | – | – | – | – | – | 164 to 166 | – | 75 to 100 | – | – |
| Cc1ccc2cc(Cn3nnc4ccc(-c5cc(F)c(C(=O)NOCCO)c(F)c5)nc43)ccc2n1 [Example 21, 2,6-difluoro-N-(2-hydroxyethoxy)-4-(3-((2-methylquinolin-6-yl)methyl)-3H-[1,2,3]triazolo[4,5-b]pyridin-5-yl) benzamide] | 25 to 50 | 75 to 100 | – | – | – | – | – | – | – | – | 208 to 210 | – | < 25 | – | – |
| O=C(NOCCO)c1ccc(-c2ccc3nnn(Cc4ccc5ncccc5c4)c3n2)cc1F [Example 10, 2-fluoro-N-(2-hydroxyethoxy)-4-(3-(quinolin-6-ylmethyl)-3H-[1,2,3]triazolo[4,5-b]pyridin-5-yl)benzamide] | 25 to 50 | 75 to 100 | 25 to 50 | – | – | – | – | – | – | – | 200 to 203 | – | 75 to 100 | – | – |
| O=C(NOCCO)c1ccc(-c2ccc3nnn(Cc4cc5cccnc5cc4F)c3n2)cc1Cl [Example 7, 2-chloro-4-(3-((7-fluoroquinolin-6-yl)methyl)-3H-[1,2,3]triazolo[4,5-b]pyridin-5-yl)-N-(2-hydroxyethoxy)benzamide] | 25 to 50 | 75 to 100 | 25 to 50 | ≤ 10 | ≤ 10 | – | ≤ 10 | – | – | ≤ 10 | – | – | 75 to 100 | – | A (A is ≧75) |

Now from value to molecule, other results behind:

| IC50 ([1]; Table 4A) [nM] | inhibition at 0.1 µM ([2]; Table 4A) [%] | GI50 (MKN-45; MKN-45, Table 4A) [nM] | IC50 (c-Met kinase [3]) [nM] | IC50 (Akt [4]) [nM] | IC50 ([1]; Table 4C) [nM] | IC50 (c-Met kinase [5]) [nM] | GI50 (MKN-45; MKN-45, Table 4C) [nM] | IC50 (MDA-MB-231 cells) [nM] | IC50 (Akt [6]) [nM] | melting point [°C] | inhibition at 0.1 µM ([2]; Table 4C) [%] | Structure (SMILES) | inhibition at 0.1 µM (MKN-45; MKN-45, Table 4A) [%] | inhibition at 0.1 µM (MKN-45; MKN-45, Table 4C) [%] | % induction of caspase-3 activity (MKN-45 cells) |
| --- | --- | --- | --- | --- | --- | --- | --- | --- | --- | --- | --- | --- | --- | --- | --- |
| 25 to 50 | 75 to 100 | 25 to 50 | ≤ 10 | – | – | – | – | – | – | – | – | C[C@@H](O)CONC(=O)c1ccc(-c2ccc3nnn(Cc4ccc5ncccc5c4)c3n2)cc1Cl [Example 32, (R)-2-chloro-N-(2-hydroxypropoxy)-4-(3-(quinolin-6-ylmethyl)-3H-[1,2,3]triazolo[4,5-b]pyridin-5-yl) benzamide] | 75 to 100 | – | – |
| – | – | – | 25 to 50 | 25 to 50 | 25 to 50 | ≤ 10 | 25 to 50 | 10 to 50 | ≤ 10 | – | – | NC(=O)c1c(F)cc(-c2ccc3nnn(Cc4ccc5ncsc5c4)c3n2)cc1F [Example 1006, 4-(3-(benzo[d]thiazol-6-ylmethyl)-3H-[1,2,3]triazolo[4,5-b]pyridin-5-yl)-2,6-difluorobenzamide] | – | 75 to 100 | B (B is <75 and ≧50) |
| – | 75 to 100 | – | 10 to 25 | 25 to 50 | – | ≤ 10 | – | 10 to 50 | ≤ 10 | – | – | Cc1cc(-c2ccc3nnn(Cc4ccc5ncccc5c4)c3n2)ccc1C(=O)NOCC(C)(C)O [Example 33, N-(2-hydroxy-2-methylpropoxy)-2-methyl-4-(3-(quinolin-6-ylmethyl)-3H-[1,2,3]triazolo[4,5-b]pyridin-5-yl)benzamide] | – | – | A (A is ≧75) |
| – | – | – | – | – | < 25 | – | 100 to 250 | – | – | 243 to 245 | 75 to 100 | NC(=O)c1ccc(-c2ccc3ncn(Cc4ccc5ncccc5c4)c3n2)cc1C(F)(F)F [Example 1024, 4-(3-Quinolin-6-ylmethyl-3H-imidazo[4,5-b]pyridin-5-yl)-2-trifluoromethyl-benzamide] | – | – | – |
| – | 50 to 75 | 25 to 50 | ≤ 10 | – | – | – | – | – | – | – | – | C[C@H](O)CONC(=O)c1ccc(-c2ccc3nnn(Cc4ccc5ncccc5c4)c3n2)cc1Cl [Example 31, (S)-2-chloro-N-(2-hydroxypropoxy)-4-(3-(quinolin-6-ylmethyl)-3H-[1,2,3]triazolo[4,5-b]pyridin-5-yl) benzamide] | 50 to 75 | – | – |
